One series relates to HeLa cells. As to the kind of experiment: Cell-based degradation of FITC-insulin. Further details: species or system human. To be noted: for increase in magnitude of IDE activity for insulin degradation in HeLa cells: HeLa cells pre-loaded with FITC-insulin, 20 µM; for permeability through cell membrane: inferred from HeLa cell assay. As for the experimental part: It was shown that HeLa cells express insulin receptor, and thus take FITC-labeled insulin inside and degrade it intracellularly, [21], [22]. First, FITC-insulin was added to the culture that contains HeLa cells and incubated for 2 hours in order to allow for sufficient uptake of FITC-insulin by HeLa cells. In order to ensure that FITC-labeled insulin is translocating into the cells through insulin uptake receptor, and that cytoplasmic IDE can degrade FITC- insulin, we conducted live cell imaging of HeLa cells, and recorded fluorescence. At various time points compounds, D3, D6, and D10, were added; and cells were washed with Hank's balanced salt solution (HBSS), the these cells were collected and lysed with appropriate buffer. After centrifugation, cell free extracts were used to measure the change in fluorescence by luminometer. […] Compound D10 increased in vivo proteolysis of FITC- insulin by about 32 fold with HeLa cells compared to control group (Fig. 3A). […] These findings are consistent with the data obtained by in vitro assay, showing enhanced degradation of insulin by D10 and D3 (Fig. 3A). […] This figure further verifies the significant increase in fluorescence observed in the presence of compound D10, which is consistent with our in vitro assay (Fig. 3B).
Cells were cultured at 37°C under a humidified atmosphere of 5% CO2 in medium supplemented with 10% fetal bovine serum. Then, FITC-insulin was added to cell medium and incubated for 2 h at 37°C. Next, compounds were loaded at different time intervals separately. Cells were washed with Hank's balanced salt solution (HBSS), then disrupted with 1× passive lysis buffer. Fluorescence was measured with a luminescence multi-label plate leader, and changes in fluorescence was imaged by fluorescence microscope at Burc Laboratory (Istanbul, Turkey).

Series [1] concerns the target T1, double mutant IDE (Gln363Ala, His332Ala) (Homo sapiens, UniProt P14735, H332A/Q363A).
T1 construct: made in house; host or cells: E. coli (BL21 inferred, as for the wild type)
T1 sequence (P14735 1-1019 H332A/Q363A): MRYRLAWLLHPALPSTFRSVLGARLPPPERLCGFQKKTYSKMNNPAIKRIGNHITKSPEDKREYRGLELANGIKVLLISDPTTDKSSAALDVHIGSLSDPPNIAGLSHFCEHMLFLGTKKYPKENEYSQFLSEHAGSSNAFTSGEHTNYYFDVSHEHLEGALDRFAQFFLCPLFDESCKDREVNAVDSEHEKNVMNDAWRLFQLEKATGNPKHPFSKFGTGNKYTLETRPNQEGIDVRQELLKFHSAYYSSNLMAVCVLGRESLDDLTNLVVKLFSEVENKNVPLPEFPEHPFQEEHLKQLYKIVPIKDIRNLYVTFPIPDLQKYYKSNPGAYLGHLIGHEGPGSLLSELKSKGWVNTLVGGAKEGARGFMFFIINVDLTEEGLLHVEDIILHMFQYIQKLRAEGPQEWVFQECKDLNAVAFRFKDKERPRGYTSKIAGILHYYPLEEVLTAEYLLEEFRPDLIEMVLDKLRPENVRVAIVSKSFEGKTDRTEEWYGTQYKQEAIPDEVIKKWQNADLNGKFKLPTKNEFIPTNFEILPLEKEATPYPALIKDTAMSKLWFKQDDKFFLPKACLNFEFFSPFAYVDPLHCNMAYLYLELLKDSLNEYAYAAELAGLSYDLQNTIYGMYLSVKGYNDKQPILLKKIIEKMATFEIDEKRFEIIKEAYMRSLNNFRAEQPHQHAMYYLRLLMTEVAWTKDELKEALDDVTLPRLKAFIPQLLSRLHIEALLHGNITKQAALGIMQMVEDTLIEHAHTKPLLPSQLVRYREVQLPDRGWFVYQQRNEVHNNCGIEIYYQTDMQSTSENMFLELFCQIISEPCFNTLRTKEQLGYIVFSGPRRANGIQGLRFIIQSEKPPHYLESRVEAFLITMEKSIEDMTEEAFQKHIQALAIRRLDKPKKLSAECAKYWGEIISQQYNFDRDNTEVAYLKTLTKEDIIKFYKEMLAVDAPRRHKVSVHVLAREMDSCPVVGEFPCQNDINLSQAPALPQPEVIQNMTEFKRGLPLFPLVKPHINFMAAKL
Put plainly: FITC-insulin-mAb degradation by double mutant IDE (Gln363Ala, His332Ala). In kind it is biochemical. To be noted: 20 µM D10. An excerpt:
Since D10 has been found as the strongest activator of IDE towards the proteolysis of insulin, we analyzed the binding site of the compound D10 for the further analysis. According to the computational results, D10 binds to Gln363 at the IDE exosite and His332 (Fig. 1D). We carried out site-directed mutagenesis by replacing these amino acids into Ala in order to verify that D10 indeed binds to this region via these amino acids. We first mutated Gln363 to Ala and then expressed and purified mutant protein through nickel resin. The effect of D10 on the proteolytic activity of mutant IDE (Gln363Ala) was measured towards FITC-insulin-mAb degradation. […] The activation was about 49-fold in the presence of D10 with wild type IDE (Fig. 2B). Although mutant IDE activity was less responsive to D10 compound compared to wild type IDE, it appeared as if D10 were interacting with IDE through […] and could enhance the activity of mutant IDE. […]
The utility of these novel compounds were tested on degradation of insulin by IDE. […] The proteolysis of insulin by IDE was monitored by measuring the changes in fluorescence, where the reaction was carried out with 100 nM of FITC- insulin-mAb and IDE (80 ng) in 100 µl KH2PO4 buffer at a pH of 7.3. […] The increase in fluorescence was monitored by using Fluoroskan Ascent FL microplate reader (Thermo).

As to `COc1ccc(C2C(C(=O)Nc3ccccc3)=C(C)N=c3sc(=Cc4cn(C)nc4C)c(=O)n32)cc1` (centres unmarked) [Compound D3], in the series on HeLa cells, the “increase in magnitude of IDE activity for insulin degradation in HeLa cells” value is given as roughly 65% and the “permeability through cell membrane” value is “permeable through cell membrane”.
On to `Cc1nn(-c2ccccc2)c2nc(-c3cccc([N+](=O)[O-])c3)n3c4ccccc4nc3c2c1=O` [Compound D10], for which, in series [1], the “binding to exosite of double mutant IDE” value is on record as “could not bind to IDE exosite”. In the series with HeLa cells, the “increase in magnitude of IDE activity for insulin degradation in HeLa cells” value was roughly 240% and the “permeability through cell membrane” value is “permeable through cell membrane”.

Source of the values: publication PMC3280214, “Structure Based Discovery of Small Molecules to Regulate the Activity of Human Insulin Degrading Enzyme” (PLoS ONE, 2012).
